Read-outs that look alike come from different tables or passages of the source.
Assays:
Assay type in all cases: biochemical
kinases [1] = target: kinases (Homo sapiens, UniProt P06213); details: INSR *Mn* FRET-Z-Lyte SP; Test Conc(μM):ATP Conc(μM) 1:25
kinases [2] = target: kinases (Homo sapiens, UniProt Q13627); details: DYRK1A FRET-Z-Lyte SP; Test Conc(μM):ATP Conc(μM) 1:100
kinases [3] = target: kinases (Homo sapiens, UniProt O94921); details: CDK14(PFTK1)/cyclinY Lantha SP; Test Conc(μM) 1
kinases [4] = target: kinases (Homo sapiens, UniProt Q6PHR2); details: ULK3 FRET-Lantha SP; Test Conc(μM) 1
kinases [5] = target: kinases (Homo sapiens, UniProt Q99558); details: MAP3K14 (NIK) FRET-Lantha SP; Test Conc(μM) 1
kinases [6] = target: kinases (Homo sapiens, UniProt P48730); details: CSNK1D (CK1 delta) Z-Lyte SP; Test Conc(μM):ATP Conc(μM) 1:5
kinases [7] = target: kinases (Homo sapiens, UniProt P08069); details: IGF1R FRET-Z-Lyte SP; Test Conc(μM):ATP Conc(μM) 1:150
kinases [8] = target: kinases (Homo sapiens, UniProt Q9NYY3); details: PLK2 FRET-Z-Lyte SP; Test Conc(μM):ATP Conc(μM) 1:25
kinases [9] = target: kinases (Homo sapiens, UniProt Q12866); details: MERTK (cMER) *Mn* Z-Lyte SP; Test Conc(μM):ATP Conc(μM) 1:10
kinases [10] = target: kinases (Homo sapiens, UniProt Q96BR1); details: SGKL (SGK3) FRET-Z-Lyte SP; Test Conc(μM):ATP Conc(μM) 1:10
kinases [11] = target: kinases (Homo sapiens, UniProt O00141); details: SGK (SGK1) FRET-Z-Lyte SP; Test Conc(μM):ATP Conc(μM) 1:25
kinases [12] = target: kinases (Homo sapiens, UniProt P54646)
kinases [13] = target: kinases (Homo sapiens, UniProt Q9H1R3); details: MYLK2 FRET-Z-lyte SP
kinases [14] = target: kinases (Homo sapiens, UniProt Q8IYT8); details: ULK2 FRET-Lantha SP; Test Conc(μM) 1
kinases [15] = target: T1, kinases (Homo sapiens, UniProt O15530)
T1 sequence (O15530 1-556): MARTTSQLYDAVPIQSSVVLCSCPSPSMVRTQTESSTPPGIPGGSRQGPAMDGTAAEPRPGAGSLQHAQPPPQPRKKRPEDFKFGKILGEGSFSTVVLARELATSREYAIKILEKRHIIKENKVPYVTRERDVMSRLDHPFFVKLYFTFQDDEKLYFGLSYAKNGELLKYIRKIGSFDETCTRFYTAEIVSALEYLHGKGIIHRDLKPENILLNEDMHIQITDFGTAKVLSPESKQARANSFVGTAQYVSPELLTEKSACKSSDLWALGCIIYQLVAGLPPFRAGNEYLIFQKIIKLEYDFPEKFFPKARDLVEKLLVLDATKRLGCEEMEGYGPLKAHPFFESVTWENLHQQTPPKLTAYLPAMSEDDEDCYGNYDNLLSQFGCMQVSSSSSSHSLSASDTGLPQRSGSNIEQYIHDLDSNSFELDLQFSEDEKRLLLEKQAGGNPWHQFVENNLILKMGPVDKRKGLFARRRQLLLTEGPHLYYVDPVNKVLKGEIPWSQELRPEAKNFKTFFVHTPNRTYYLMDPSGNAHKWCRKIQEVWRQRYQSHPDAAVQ

kinases [16] = target: kinases (Homo sapiens, UniProt O14965); details: AURKA (Aurora A) Z-Lyte SP; Test Conc(μM):ATP Conc(μM) 1:10
kinases [17] = target: kinases (Homo sapiens, UniProt Q9BZL6); details: PRKD2 (PKD2) Z-Lyte SP; Test Conc(μM):ATP Conc(μM) 1:25
kinases [18] = target: kinases (Homo sapiens, UniProt Q9UPE1); details: STK23 (MSSK1) FRET-Z-Lyte SP; Test Conc(μM):ATP Conc(μM) 1:75
kinases [19] = target: kinases (Homo sapiens, UniProt Q16644); details: MAPKAPK3 FRET-Z-Lyte SP; Test Conc(μM):ATP Conc(μM) 1:200
kinases [20] = target: kinases (Homo sapiens, UniProt O15146); details: MUSK *Mn* FRET-Z-Lyte SP; Test Conc(μM):ATP Conc(μM) 1:50
kinases [21] = target: kinases (Homo sapiens, UniProt Q9NYA1); details: SPHK1 FRET-Adapta SP; Test Conc(μM):ATP Conc(μM) 1:10
kinases [22] = target: kinases (Homo sapiens, UniProt P27037); details: ACVR2A FRET-Lantha SP; Test Conc(μM) 1
kinases [23] = target: kinases (Homo sapiens, UniProt Q8IVH8); details: MAP4K3 (GLK) FRET-Lantha SP; Test Conc(μM) 1
[24] = AMPK (A2/B2/G1) FRET-Lantha SP, Test Conc(μM) 1
[25] = AMPK (A2/B2/G2) FRET-Lantha SP, Test Conc(μM) 1
[26] = AMPK A2/B1/G1 FRET-Z-Lyte SP, Test Conc(μM):ATP Conc(μM) 1:150
[27] = AMPK A2/B1/G2 FRET-Z-Lyte SP, Test Conc(μM):ATP Conc(μM) 1:10
[28] = AMPK A2/B1/G3 FRET-Z-Lyte SP, Test Conc(μM):ATP Conc(μM) 1:25
[29] = AMPK A2/B2/G3 FRET-Z-Lyte SP, Test Conc(μM):ATP Conc(μM) 1:50
[30] = PDK1 (Direct) FRET-Z-lyte SP, Test Conc(μM):ATP Conc(μM) 1:25
[31] = PDK1 Cascade FRET-Z-Lyte SP, Test Conc(μM):ATP Conc(μM) 1:100

Sequence of kinases (Homo sapiens, UniProt P54646) (P54646 whole entry): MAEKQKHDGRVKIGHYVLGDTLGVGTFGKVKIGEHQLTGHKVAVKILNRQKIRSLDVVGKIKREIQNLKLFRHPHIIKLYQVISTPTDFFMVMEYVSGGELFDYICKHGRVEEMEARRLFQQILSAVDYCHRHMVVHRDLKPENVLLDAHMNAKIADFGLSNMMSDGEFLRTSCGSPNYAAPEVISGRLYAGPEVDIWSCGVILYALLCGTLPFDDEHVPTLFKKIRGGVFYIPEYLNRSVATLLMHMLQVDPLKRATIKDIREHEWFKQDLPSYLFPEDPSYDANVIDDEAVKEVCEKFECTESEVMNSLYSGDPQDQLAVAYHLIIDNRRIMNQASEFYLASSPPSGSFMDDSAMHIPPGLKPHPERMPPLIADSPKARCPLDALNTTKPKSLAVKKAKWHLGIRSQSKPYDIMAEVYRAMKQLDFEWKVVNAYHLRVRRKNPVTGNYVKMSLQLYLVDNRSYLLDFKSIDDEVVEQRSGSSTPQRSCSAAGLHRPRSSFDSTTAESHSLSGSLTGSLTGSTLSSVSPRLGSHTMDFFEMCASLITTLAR
Sequence of kinases (Homo sapiens, UniProt O94921) (O94921 whole entry): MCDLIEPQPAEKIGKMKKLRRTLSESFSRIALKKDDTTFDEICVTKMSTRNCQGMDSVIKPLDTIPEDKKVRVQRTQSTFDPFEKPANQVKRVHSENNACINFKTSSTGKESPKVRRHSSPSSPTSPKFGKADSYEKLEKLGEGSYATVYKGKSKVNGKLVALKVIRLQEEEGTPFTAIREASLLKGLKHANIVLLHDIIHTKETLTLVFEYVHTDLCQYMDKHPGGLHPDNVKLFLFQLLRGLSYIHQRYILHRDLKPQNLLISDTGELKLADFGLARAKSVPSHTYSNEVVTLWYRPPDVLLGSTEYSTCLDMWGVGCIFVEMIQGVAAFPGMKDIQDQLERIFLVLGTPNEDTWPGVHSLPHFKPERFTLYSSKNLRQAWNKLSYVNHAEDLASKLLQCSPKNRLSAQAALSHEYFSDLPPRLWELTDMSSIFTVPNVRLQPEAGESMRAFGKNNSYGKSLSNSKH
Sequence of kinases (Homo sapiens, UniProt O15146) (O15146 24-869): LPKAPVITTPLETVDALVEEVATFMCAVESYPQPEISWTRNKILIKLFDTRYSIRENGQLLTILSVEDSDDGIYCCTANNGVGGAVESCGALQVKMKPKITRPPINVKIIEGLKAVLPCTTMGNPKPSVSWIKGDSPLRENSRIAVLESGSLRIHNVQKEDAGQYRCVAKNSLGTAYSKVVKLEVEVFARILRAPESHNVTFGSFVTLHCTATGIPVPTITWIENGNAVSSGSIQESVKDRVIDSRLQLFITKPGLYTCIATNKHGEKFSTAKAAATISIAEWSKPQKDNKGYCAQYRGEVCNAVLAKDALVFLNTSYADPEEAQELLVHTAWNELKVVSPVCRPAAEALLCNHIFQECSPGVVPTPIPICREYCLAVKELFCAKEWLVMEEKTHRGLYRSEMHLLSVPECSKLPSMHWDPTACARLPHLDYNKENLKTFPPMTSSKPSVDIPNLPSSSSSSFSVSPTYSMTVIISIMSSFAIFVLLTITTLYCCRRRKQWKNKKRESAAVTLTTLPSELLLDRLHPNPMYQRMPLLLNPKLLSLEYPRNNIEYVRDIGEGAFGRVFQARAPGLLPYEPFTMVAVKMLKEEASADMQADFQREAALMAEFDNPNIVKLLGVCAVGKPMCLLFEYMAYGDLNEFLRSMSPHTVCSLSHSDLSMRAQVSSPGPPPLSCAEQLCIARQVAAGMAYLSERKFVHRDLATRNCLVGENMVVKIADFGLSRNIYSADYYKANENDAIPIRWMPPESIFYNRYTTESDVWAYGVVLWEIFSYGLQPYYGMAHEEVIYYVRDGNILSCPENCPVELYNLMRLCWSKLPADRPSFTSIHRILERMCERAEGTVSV
Sequence of kinases (Homo sapiens, UniProt Q9UPE1) (Q9UPE1 whole entry): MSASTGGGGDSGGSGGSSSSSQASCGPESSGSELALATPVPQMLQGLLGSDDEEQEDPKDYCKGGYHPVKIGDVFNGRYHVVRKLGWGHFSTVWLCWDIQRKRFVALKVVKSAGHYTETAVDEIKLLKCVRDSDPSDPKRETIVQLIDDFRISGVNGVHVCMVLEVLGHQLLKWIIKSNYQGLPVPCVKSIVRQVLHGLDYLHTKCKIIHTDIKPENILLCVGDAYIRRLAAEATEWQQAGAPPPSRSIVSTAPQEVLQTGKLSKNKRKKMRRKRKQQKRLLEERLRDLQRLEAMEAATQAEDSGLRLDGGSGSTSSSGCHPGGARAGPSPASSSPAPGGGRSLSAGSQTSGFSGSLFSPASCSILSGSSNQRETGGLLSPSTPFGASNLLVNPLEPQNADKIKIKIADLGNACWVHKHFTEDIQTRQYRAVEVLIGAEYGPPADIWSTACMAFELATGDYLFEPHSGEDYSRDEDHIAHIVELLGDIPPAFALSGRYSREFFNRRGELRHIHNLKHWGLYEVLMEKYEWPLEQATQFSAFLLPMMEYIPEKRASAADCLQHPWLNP
Sequence of kinases (Homo sapiens, UniProt Q8IVH8) (Q8IVH8 whole entry): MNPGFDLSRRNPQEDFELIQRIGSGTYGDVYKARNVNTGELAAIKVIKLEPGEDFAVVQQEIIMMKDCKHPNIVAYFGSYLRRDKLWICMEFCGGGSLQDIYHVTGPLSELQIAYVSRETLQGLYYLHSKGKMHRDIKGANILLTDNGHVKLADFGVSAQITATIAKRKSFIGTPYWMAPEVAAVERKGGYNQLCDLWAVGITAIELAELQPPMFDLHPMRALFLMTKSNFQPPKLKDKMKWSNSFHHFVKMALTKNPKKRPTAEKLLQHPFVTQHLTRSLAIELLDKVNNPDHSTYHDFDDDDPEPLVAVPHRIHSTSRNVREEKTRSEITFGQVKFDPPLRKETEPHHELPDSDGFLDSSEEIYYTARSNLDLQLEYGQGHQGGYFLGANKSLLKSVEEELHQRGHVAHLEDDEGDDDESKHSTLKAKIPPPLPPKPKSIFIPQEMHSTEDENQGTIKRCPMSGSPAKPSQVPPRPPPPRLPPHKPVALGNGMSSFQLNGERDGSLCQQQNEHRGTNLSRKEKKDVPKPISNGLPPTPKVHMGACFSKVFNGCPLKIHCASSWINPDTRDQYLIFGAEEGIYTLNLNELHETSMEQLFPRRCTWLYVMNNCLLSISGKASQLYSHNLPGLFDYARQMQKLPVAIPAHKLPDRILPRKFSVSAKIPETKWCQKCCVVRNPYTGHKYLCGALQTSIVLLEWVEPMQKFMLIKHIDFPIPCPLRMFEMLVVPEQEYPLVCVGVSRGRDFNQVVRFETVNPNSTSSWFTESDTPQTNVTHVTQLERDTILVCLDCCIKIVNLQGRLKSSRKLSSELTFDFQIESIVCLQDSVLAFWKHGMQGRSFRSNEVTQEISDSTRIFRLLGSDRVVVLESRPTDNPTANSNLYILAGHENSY
Sequence of kinases (Homo sapiens, UniProt Q9H1R3) (Q9H1R3 whole entry): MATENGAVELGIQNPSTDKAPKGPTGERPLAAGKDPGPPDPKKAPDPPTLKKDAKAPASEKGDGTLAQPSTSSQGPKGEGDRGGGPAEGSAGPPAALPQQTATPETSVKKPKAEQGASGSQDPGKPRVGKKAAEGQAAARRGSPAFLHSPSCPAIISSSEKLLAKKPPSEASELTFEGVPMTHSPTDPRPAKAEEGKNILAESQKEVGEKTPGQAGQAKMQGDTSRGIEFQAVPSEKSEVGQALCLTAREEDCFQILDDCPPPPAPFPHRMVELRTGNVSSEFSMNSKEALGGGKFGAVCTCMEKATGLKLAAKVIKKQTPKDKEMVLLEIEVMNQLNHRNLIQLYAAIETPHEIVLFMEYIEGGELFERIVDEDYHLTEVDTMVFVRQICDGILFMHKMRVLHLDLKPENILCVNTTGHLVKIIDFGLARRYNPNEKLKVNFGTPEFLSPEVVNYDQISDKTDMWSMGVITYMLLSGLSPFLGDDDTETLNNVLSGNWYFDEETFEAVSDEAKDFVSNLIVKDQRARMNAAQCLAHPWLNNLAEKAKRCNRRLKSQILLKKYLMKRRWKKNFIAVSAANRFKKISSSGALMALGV
Sequence of kinases (Homo sapiens, UniProt Q9NYY3) (Q9NYY3 whole entry): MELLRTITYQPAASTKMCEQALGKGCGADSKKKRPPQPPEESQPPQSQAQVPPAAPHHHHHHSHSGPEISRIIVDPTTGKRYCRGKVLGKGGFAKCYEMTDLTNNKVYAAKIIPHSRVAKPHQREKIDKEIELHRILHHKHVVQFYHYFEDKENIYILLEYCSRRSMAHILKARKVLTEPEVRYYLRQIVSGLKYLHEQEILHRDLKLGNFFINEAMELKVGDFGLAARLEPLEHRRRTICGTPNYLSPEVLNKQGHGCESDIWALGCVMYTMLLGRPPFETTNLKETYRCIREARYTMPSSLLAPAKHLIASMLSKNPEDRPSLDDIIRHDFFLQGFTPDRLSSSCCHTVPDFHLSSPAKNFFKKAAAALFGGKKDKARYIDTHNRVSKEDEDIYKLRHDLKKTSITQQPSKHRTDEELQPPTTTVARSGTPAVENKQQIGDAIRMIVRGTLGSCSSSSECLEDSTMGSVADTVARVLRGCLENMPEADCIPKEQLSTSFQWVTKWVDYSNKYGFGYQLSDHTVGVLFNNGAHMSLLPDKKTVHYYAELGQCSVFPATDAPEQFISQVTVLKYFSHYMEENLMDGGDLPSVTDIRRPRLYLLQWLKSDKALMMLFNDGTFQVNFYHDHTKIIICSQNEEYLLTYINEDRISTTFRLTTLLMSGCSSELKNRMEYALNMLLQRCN
Sequence of kinases (Homo sapiens, UniProt Q9NYA1) (Q9NYA1 whole entry): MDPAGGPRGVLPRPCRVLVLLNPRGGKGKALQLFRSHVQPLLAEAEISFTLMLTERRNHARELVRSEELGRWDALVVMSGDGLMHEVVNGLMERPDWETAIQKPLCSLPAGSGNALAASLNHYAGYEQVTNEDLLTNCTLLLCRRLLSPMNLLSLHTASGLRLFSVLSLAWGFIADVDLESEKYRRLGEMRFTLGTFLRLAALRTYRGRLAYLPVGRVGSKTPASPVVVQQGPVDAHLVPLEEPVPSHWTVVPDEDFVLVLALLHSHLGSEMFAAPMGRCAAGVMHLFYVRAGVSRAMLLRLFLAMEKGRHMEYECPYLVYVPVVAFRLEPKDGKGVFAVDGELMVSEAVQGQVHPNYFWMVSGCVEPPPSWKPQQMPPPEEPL

With `Cc1ccc(NC(=O)c2ccnc(N3CCOCC3)c2)cc1Nc1ccnc(N2CC(C)OC(C)C2)n1` (stereo not shown) [compound 3] the “Mean Inhib (%)” value (kinases [1]) was 2.1%, the “Mean Inhib (%)” value (kinases [2]) was 6.2% and the “Mean Inhib (%)” value (kinases [3]) was 3.5%. The “Mean Inhib (%)” value (kinases [4]) was −2.1%, the “Mean Inhib (%)” value (kinases [5]) was −1.3% and the “Mean Inhib (%)” value (kinases [6]) was 1.2%. The “Mean Inhib (%)” value (kinases [7]) was 11.6%, the “Mean Inhib (%)” value (kinases [8]) was 1.8% and the “Mean Inhib (%)” value (kinases [9]) was 13.1%. The “Mean Inhib (%)” value (kinases [10]) was 13.3%, the “Mean Inhib (%)” value (kinases [11]) was −7.0% and the “Mean Inhib (%)” value (kinases [12]; [24]) was −0.8%. The “Mean Inhib (%)” value (kinases [12]; [25]) was −1.1%, the “Mean Inhib (%)” value (kinases [12]; [26]) was −3.5% and the “Mean Inhib (%)” value (kinases [12]; [27]) was 11.4%. The “Mean Inhib (%)” value (kinases [12]; [28]) was 7.8%, the “Mean Inhib (%)” value (kinases [12]; [29]) was 3.8% and the “Mean Inhib (%)” value (kinases [13]; Test Conc(μM):ATP Conc(μM) 1:300) was 7.4%. For the same molecule, the “Mean Inhib (%)” value (kinases [14]) was 2.6%, the “Mean Inhib (%)” value (kinases [15]; [30]) was 0.4% and the “Mean Inhib (%)” value (kinases [15]; [31]) was 3.7%. For the same molecule, the “Mean Inhib (%)” value (kinases [16]) was −2.7%, the “Mean Inhib (%)” value (kinases [17]) was 1.5% and the “Mean Inhib (%)” value (kinases [18]) was 4.3%. For the same molecule, the “Mean Inhib (%)” value (kinases [19]) was 1.7%, the “Mean Inhib (%)” value (kinases [20]) was 19.5% and the “Mean Inhib (%)” value (kinases [21]) was 8.0%. For the same molecule, the “Mean Inhib (%)” value (kinases [22]) was 3.8% and the “Mean Inhib (%)” value (kinases [23]) was 7.7%.

`Cc1cc(Oc2ccnc(Nc3ccc(S(N)(=O)=O)cc3)c2)c(-c2ccccn2)nc1C` [compound 65] was tested, and the “Mean Inhib (%)” value (kinases [1]) was 1.5%, the “Mean Inhib (%)” value (kinases [2]) was −1.9% and the “Mean Inhib (%)” value (kinases [3]) was 11.7%. The “Mean Inhib (%)” value (kinases [4]) was −2.4%, the “Mean Inhib (%)” value (kinases [5]) was 4.9% and the “Mean Inhib (%)” value (kinases [6]) was 1.9%. The “Mean Inhib (%)” value (kinases [7]) was 6.5%, the “Mean Inhib (%)” value (kinases [8]) was 14.0% and the “Mean Inhib (%)” value (kinases [9]) was 7.3%. For the same molecule, the “Mean Inhib (%)” value (kinases [10]) was 4.7%, the “Mean Inhib (%)” value (kinases [11]) was −1.4% and the “Mean Inhib (%)” value (kinases [12]; [24]) was −1.2%. The “Mean Inhib (%)” value (kinases [12]; [25]) was 1.4%, the “Mean Inhib (%)” value (kinases [12]; [26]) was 2.9% and the “Mean Inhib (%)” value (kinases [12]; [27]) was −6.7%. For the same molecule, the “Mean Inhib (%)” value (kinases [12]; [28]) was −5.2%, the “Mean Inhib (%)” value (kinases [12]; [29]) was −4.3% and the “Mean Inhib (%)” value (kinases [13]; Test Conc(μM):ATP Conc(μM) 0.25) was −7.8%. The “Mean Inhib (%)” value (kinases [14]) was −1.0%, the “Mean Inhib (%)” value (kinases [15]; [30]) was 6.9% and the “Mean Inhib (%)” value (kinases [15]; [31]) was 9.4%. The “Mean Inhib (%)” value (kinases [16]) was 7.2%, the “Mean Inhib (%)” value (kinases [17]) was 21.2% and the “Mean Inhib (%)” value (kinases [18]) was −4.8%. The “Mean Inhib (%)” value (kinases [19]) was −1.3%, the “Mean Inhib (%)” value (kinases [20]) was 17.2% and the “Mean Inhib (%)” value (kinases [21]) was −0.7%. The “Mean Inhib (%)” value (kinases [22]) was 71.5% and the “Mean Inhib (%)” value (kinases [23]) was 14.0%.

— US20220187282A1, “CARDIOMYOCYTE PROLIFERATION” (The Council of the Queensland Institute of Medical Research, priority 2019, published 2022)
